Measurements: publication PMC2866134 (Bioorganic & medicinal chemistry letters, 2010)

Key:
[1] = target: PDGFR-β (Homo sapiens, UniProt P09619); test: PDGFR-β inhibition, whole cell phosphotyrosine ELISA cytoblot; assay type: cell-based; settings: whole cell assay
[2] = target: VEGFR-1 (Homo sapiens, UniProt P17948); test: VEGFR-1 inhibition, whole cell phosphotyrosine ELISA cytoblot; assay type: cell-based; settings: whole cell assay
Sequence of VEGFR-1 (P17948 27-1338): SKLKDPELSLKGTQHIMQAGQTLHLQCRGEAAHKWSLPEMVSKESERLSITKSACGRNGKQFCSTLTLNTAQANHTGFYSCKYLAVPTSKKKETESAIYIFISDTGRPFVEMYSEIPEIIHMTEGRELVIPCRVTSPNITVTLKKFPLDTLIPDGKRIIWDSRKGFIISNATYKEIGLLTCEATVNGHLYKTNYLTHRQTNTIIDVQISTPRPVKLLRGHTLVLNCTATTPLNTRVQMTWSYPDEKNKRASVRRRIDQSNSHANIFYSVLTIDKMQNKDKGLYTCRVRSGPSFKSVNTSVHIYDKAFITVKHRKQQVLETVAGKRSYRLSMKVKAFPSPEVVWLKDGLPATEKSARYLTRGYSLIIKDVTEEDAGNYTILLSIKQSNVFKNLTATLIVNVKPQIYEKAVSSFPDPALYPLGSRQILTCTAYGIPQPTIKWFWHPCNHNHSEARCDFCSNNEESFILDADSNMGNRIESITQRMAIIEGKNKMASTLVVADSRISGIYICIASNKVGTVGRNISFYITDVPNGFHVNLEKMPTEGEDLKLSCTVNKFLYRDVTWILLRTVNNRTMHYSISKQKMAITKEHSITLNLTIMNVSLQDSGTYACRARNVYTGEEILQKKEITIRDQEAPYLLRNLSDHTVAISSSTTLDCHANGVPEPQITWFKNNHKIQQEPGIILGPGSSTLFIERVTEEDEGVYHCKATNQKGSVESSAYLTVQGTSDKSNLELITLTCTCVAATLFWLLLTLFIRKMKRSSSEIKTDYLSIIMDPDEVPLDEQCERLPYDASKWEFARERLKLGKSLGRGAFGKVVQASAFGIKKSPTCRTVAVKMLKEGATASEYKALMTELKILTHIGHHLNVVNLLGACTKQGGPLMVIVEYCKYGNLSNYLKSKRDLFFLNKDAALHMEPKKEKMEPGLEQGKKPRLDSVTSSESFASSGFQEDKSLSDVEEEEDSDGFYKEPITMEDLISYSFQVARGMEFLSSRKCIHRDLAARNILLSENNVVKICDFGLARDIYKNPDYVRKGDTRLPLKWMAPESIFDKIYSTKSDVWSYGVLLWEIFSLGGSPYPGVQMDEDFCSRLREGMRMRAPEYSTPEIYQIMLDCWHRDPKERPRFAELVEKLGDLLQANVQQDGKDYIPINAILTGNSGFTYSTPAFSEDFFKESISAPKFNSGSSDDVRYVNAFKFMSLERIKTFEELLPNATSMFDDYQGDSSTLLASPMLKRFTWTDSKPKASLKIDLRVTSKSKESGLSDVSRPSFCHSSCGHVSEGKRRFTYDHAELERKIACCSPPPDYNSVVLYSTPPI

Sequence of PDGFR-β (P09619 33-1106): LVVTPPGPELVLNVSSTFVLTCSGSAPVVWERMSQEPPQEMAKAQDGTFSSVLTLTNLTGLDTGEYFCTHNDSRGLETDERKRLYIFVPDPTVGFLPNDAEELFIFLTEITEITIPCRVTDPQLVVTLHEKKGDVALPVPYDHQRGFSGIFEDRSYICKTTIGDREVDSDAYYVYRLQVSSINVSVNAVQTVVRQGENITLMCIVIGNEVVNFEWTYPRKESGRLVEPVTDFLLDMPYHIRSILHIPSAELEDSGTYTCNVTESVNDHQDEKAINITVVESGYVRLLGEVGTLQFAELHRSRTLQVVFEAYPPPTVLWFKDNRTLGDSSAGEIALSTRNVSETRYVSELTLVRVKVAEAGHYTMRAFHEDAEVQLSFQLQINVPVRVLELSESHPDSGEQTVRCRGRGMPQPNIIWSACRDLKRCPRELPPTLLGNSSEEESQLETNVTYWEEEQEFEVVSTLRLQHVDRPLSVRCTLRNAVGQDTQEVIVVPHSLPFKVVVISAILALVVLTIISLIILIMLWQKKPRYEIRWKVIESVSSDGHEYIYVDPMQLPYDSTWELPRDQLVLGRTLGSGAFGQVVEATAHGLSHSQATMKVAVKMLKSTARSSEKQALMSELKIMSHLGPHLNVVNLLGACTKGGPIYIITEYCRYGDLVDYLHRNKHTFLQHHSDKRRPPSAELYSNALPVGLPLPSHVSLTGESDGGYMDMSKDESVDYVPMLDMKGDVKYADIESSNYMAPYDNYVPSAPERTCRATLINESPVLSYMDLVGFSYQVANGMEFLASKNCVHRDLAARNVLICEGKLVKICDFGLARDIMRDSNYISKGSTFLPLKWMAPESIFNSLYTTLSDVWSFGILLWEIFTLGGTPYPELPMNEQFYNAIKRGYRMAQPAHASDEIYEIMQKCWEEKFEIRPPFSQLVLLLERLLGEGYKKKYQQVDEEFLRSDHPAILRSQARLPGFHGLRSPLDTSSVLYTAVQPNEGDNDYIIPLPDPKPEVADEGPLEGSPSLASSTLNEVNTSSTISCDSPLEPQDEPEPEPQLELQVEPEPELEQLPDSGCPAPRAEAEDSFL

Compound: C#Cc1cccc(Nc2ncnc3[nH]c(CCc4ccccc4)cc23)c1 [Compound 20]
- PDGFR-β inhibition, result in words [1]: inactive

Compound: FC(F)(F)c1cccc(Nc2ncnc3[nH]c(CCc4ccccc4)cc23)c1 [Compound 21]
- PDGFR-β inhibition, result in words [1]: inactive
- VEGFR-1 inhibition, result in words [2]: inactive

Compound: Fc1ccc(Nc2ncnc3[nH]c(CCc4ccccc4)cc23)cc1Br [Compound 22]
- VEGFR-1 inhibition, result in words [2]: inactive

Compound: Fc1cc(Cl)ccc1Nc1ncnc2[nH]c(CCc3ccccc3)cc12 [Compound 24]
- PDGFR-β inhibition, result in words [1]: inactive
- VEGFR-1 inhibition, result in words [2]: inactive

Compound: Fc1ccc(Nc2ncnc3[nH]c(CCc4ccccc4)cc23)cc1C(F)(F)F [Compound 23]
- PDGFR-β inhibition, result in words [1]: inactive
